Data as given in patent US5538981A, “Tetrahydro-pyrido-indole” (Eli Lilly and Company, priority 1995, dated 1996).
Counter-ions that a name gives are not always drawn.

How the values were obtained:
5-HT2 receptor = molecular target: T1, 5-HT2 receptor (Rattus norvegicus, UniProt P14842); experiment: 5-HT2 receptor radioligand binding displacement assay ([3H]ketanserin, cerebral cortex); set-up: species or system rat (male Sprague-Dawley); conditions: tritiated ketanserin 1 nM, pH 7.4, 37° C., 30 min, values over 100 nM accumulated before concentration range was reduced to 0.1 to 100 nM
T1 construct: The reaction was initiated by the addition of the resuspended rat cerebral cortex tissue; tissue Harlan Industries, Cumberland, Ind; (animals); host or cells: cerebral cortex of male Sprague-Dawley rats, washed membranes
Method: The assays were conducted by the following procedures.
5-HT1c selective compounds can be identified using the following biological assay procedures. Compounds having a selective affinity for the 5-HT1c receptor have a low IC50 in the 5-HT1c receptor assay and a higher IC50 in the 5-HT2 receptor assay.
I. Biological Reagent Preparation.
Beef brain was removed immediately after slaughter, and choroid plexus were dissected over ice. Male Sprague-Dawley rats weighing 125-150 g (Harlan Industries, Cumberland, Ind.) were killed by decapitation. The brain of each was immediately removed and the cerebral cortex was dissected over ice. Tissues were homogenized in 9 volumes of 0.32 mol/L sucrose and centrifuged at 1,000×g for 10 minutes. The supernatant was centrifuged at 17,000×g for 20 minutes. The pellet was suspended in 100 volumes of 50 mM Tris-HCL (pH7.4), incubated at 37° C. for 10 minutes and centrifuged at 50,000×g for 10 minutes, and the process was repeated three times. The final pellets were frozen at -70° C. and used within 2 weeks. Pellets were rehydrated with physiological buffer prior to use.
Radioligand binding assays for 5-HT1c and 5-HT2 receptors were conducted according to described methods. The assays can be conducted as described by Hoyer D., Functional correlates of serotonin 5-HT1 recognition sites, J. Receptor Res 8, 59-81 (1988) and Hoyer D., Engel G., Kalkman HO Molecular pharmacology of 5-HT1 and 5-HT2 recognition sires in rat and pig brain membranes: Radio-ligand binding studies with [^3 H]5-HT, [^3 H]8-OH-DPAT, (-) [^125 I] iodocyanopindolol, [^3 H]mesulergine and [^3 H]ketanserin, Eur. J. Pharmacol. 118, 13-23 (1985).
For 5-HT2 receptor assays increasing concentrations of experimental compound, 50 mM Tris HCl buffer pH [7.4], and tritiated ketanserin (1 nM) (^3 H ligand) were combined in polystyrene tubes at room temperature. The reaction was initiated by the addition of the resuspended rat cerebral cortex tissue which had been preincubated at 37° C. for 20 minutes. The reaction mixture was incubated in a 37° C. water bath for 30 minutes.
The above assays were modified after a number of compounds had been screened to accomodate the unexpectedly high potency of the compounds of this invention in the 5-HT1c assay. The concentration range of the experimental compound in the assays was changed from [0.1 to 1000 (nM)] to [0.1 to 100 (nM)] to optimize the use of reagents and analysis time.
The reactions were terminated by rapid filtration, (Brandel Cell Harvestor), through Whatman GF/B glass filters that had been presoaked in Tris buffer pH [7.4]. The filters were then washed 2 times with 5 ml of ice cold Tris buffer pH [7.4]. Washed filters were placed in scintillation vials and 10 ml RedySolv, (Brandel), was added and samples were counted in a Searle D-300 beta counter. Means and standard error statistics were calculated for triplicate experimental determinations in certain cases. Mean values were obtained from three or more separate determinations. The incubation time for the reaction mixture was […] at 37° C.
The results of the evaluation of certain compounds of the present invention in the 5-HT1c and 5-HT2 binding assays are set forth below in Table II.

5-HT1c receptor [1] = molecular target: T2, 5-HT1c receptor (Bos taurus, UniProt A0AAA9SBU1); experiment: 5-HT1c receptor radioligand binding displacement assay ([3H]mesulergine, choroid plexus); set-up: species or system beef; conditions: beef choroid plexus; tritiated mesulergine 2.0 nM; pH 7.4; 37° C., 15 min
T2 construct: natural pool of RNA-edited forms
T2 sequence (A0AAA9SBU1 33-457): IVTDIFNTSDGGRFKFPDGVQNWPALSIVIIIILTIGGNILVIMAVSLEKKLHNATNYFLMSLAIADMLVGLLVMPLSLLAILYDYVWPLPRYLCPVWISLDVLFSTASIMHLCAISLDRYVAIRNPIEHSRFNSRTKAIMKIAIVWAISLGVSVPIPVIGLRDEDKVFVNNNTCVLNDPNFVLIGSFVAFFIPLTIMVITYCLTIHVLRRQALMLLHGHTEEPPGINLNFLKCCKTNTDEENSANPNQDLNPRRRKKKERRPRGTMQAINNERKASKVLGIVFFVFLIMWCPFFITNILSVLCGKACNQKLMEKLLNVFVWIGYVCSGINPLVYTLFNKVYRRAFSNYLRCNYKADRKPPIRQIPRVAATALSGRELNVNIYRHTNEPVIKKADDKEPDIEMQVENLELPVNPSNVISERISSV
Method: (§1) Beef brain was removed immediately after slaughter, and choroid plexus were dissected over ice. […] The brain of each was immediately removed and the cerebral cortex was dissected over ice. Tissues were homogenized in 9 volumes of 0.32 mol/L sucrose and centrifuged at 1,000×g for 10 minutes. The supernatant was centrifuged at 17,000×g for 20 minutes. The pellet was suspended in 100 volumes of 50 mM Tris-HCL (pH7.4), incubated at 37° C. for 10 minutes and centrifuged at 50,000×g for 10 minutes, and the process was repeated three times. The final pellets were frozen at -70° C. and used within 2 weeks. Pellets were rehydrated with physiological buffer prior to use.
(§2) For 5-HT1c receptor assays increasing concentrations of experimental compound, 50 mM Tris HCl buffer pH[7.4], and tritiated mesulergine (2.0 nM) (^3 H ligand) were combined in polystyrene tubes at room temperature. The reaction was initiated by the addition of the resuspended choroid plexus tissue which had been preincubated at 37° C. for 20 minutes. The reaction mixture was incubated in a 37° C. water bath for 15 minutes.
(§3) The reactions were terminated by rapid filtration, (Brandel Cell Harvestor), through Whatman GF/B glass filters that had been presoaked in Tris buffer pH [7.4]. The filters were then washed 2 times with 5 ml of ice cold Tris buffer pH [7.4]. Washed filters were placed in scintillation vials and 10 ml RedySolv, (Brandel), was added and samples were counted in a Searle D-300 beta counter. Means and standard error statistics were calculated for triplicate experimental determinations in certain cases. Mean values were obtained from three or more separate determinations. The incubation time for the reaction mixture was 15 minutes at 37° C.

5-HT1c receptor [2] = experiment: as above; set-up: species or system beef; conditions: 5-HT1c versus 5-HT2, from Table II
Method: as §1, §2, §3

T1 sequence (P14842 whole entry): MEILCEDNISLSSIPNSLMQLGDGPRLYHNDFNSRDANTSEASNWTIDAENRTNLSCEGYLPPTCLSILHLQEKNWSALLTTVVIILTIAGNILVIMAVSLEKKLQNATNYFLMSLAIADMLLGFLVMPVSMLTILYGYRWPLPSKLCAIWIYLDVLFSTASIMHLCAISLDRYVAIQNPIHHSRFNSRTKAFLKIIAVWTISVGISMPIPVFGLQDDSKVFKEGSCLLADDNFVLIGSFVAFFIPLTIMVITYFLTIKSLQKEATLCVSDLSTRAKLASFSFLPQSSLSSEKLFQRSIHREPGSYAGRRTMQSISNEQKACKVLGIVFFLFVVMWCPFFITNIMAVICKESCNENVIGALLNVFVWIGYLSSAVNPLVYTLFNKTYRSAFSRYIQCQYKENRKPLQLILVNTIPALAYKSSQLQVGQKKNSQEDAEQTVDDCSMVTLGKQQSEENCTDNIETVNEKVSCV

IC50 (5-HT2 receptor)	IC50 (5-HT1c receptor [1])	SMILES	5-HT1c selectivity (low IC50 in 5-HT1c assay, higher IC50 in 5-HT2 assay) (5-HT1c receptor [2])
267 nM	30 nM	Cc1ccc2[nH]c3c(c2c1)CCNC3Cc1cccc2ccccc12 (racemic) [Example 5, (±) 6-methyl-1-(1-naphthalenylmethyl)-1,2,3,4-tetrahydro-9H-pyrido[3,4-b]indole hydrochloride]	–
247 nM	60 nM	Cc1cc(Br)c2[nH]c3c(c2c1)CCNC3Cc1cccc2ccccc12 (racemic) [Example 7, (±) 6-methyl-8-bromo-1-(1-naphthalenylmethyl)-1,2,3,4-tetrahydro-9H-pyrido[3,4-b]indole]	–
142 nM	44 nM	Cc1ccc2c3c([nH]c2c1Br)C(Cc1cccc2ccccc12)NCC3 (racemic) [Example 10, (±) 7-methyl-8-bromo-1-(1-naphthalenylmethyl)-1,2,3,4-tetrahydro-9H-pyrido[3,4-b]indole hydrochloride]	–
> 100 nM	189 nM	c1ccc2c(CC3NCCc4c3[nH]c3ccc(C5CCCCC5)cc43)cccc2c1 (racemic) [Example 11, (±) 6-cyclohexyl-1-(1-naphthalenylmethyl)-1,2,3,4-tetrahydro-9H-pyrido[3,4-b]indole hydrochloride]	–
> 100 nM	54 nM	Cc1ccc2[nH]c3c(c2c1)CCN(C)C3Cc1cccc2ccccc12 (racemic) [Example 12, (±) 2,6-dimethyl-1-(1-naphthalenylmethyl)-1,2,3,4-tetrahydro-9H-pyrido[3,4-b]indole hydrochloride]	–
> 100 nM	16 nM	Cc1ccc2[nH]c3c(c2c1F)CCNC3Cc1cccc2ccccc12 (racemic) [Example 13, (±) 5-fluoro-6-methyl-1-(1-naphthalenylmethyl)-1,2,3,4-tetrahydro-9H-pyrido[3,4-b]indole]	–
> 100 nM	61 nM	c1ccc2c(CC3NCCc4c3[nH]c3c4ccc4ccccc43)cccc2c1 (racemic) [Example 14, (±) 7,8,9,10-tetrahydro-10-(1-naphthalenylmethyl)-11H-benzo[g]pyrido[3,4-b]indole]	–
> 100 nM	23 nM	Cc1ccc2c(c1)c1c(n2C)C(Cc2cccc3ccccc23)NCC1 (racemic) [Example 17, (±) 6,9-dimethyl-1,2,3,4-tetrahydro-1-(1-naphthalenylmethyl)-9H-pyrido[3,4-b]indole hydrochloride]	–
108 nM	< 100 nM	Cc1ccc2[nH]c3c(c2c1)CCN[C@H]3Cc1cccc2ccccc12 [Example 18, (-)-(S)-6-methyl-1,2,3,4-tetrahydro-1-(1-naphthalenylmethyl)-9H-pyrido[3,4-b]indole hydrochloride]	–

Second part, the molecule before the results:

SMILES	IC50 (5-HT2 receptor)	IC50 (5-HT1c receptor [1])	5-HT1c selectivity (low IC50 in 5-HT1c assay, higher IC50 in 5-HT2 assay) (5-HT1c receptor [2])
COc1ccc(CC2NCCc3c2[nH]c2ccc(C)cc32)c2ccccc12 (racemic) [Example 1, (±) 6-methyl-1-(1-(4-methoxynaphthalenyl)methyl)-1,2,3,4-tetrahydro-9H-pyrido[3,4-b]indole hydrochloride]	56.1 nM	6.4 nM	–
Cc1ccc2[nH]c3c(c2c1)CCNC3C(C)c1cccc2ccccc12 (racemic) [Example 3, (±) 6-methyl-1-(1-naphthalenyl-1-ethyl)-1,2,3,4-tetrahydro-9H-pyrido[3,4-b]indole]	> 100 nM	6 nM	–
CC(C)c1ccc2[nH]c3c(c2c1)CCNC3C(C)c1cccc2ccccc12 (racemic) [Example 4, hydrochloride]	> 100 nM	14 nM	–
Brc1cccc2c3c([nH]c12)C(Cc1cccc2ccccc12)NCC3 (racemic) [Example 6, (±) 8-bromo-1-(1-naphthalenylmethyl)-1,2,3,4-tetrahydro-9H-pyrido[3,4-b]indolehydrochloride]	40 nM	13.2 nM	–
COc1cccc2c3c([nH]c12)C(Cc1cccc2ccccc12)NCC3 (racemic) [Example 8, (±) 8-methoxy-1-(1-naphthalenylmethyl)-1,2,3,4-tetrahydro-9H-pyrido[3,4-b]indole]	65 nM	63 nM	–
Brc1ccc2[nH]c3c(c2c1)CCNC3Cc1cccc2ccccc12 (racemic) [Example 9, (±) 6-bromo-1-(1-naphthalenylmethyl)-1,2,3,4-tetrahydro-9H-pyrido[3,4-b]indole]	87 nM	27 nM	–
CC(C)(C)c1ccc2[nH]c3c(c2c1)CCNC3Cc1cccc2ccccc12 (racemic) [Example 15, (±) 6-(1,1-dimethylethyl)-1,2,3,4-tetrahydro-1-(1-naphthalenylmethyl)-9H-pyrido[3,4b]indole]	> 100 nM	11 nM	particularly 5-HT1c selective
CC(C)c1ccc2[nH]c3c(c2c1)CCNC3Cc1cccc2ccccc12 (racemic) [Example 16, (±) 6-(1-methylethyl)-1,2,3,4-tetrahydro-1-(1-naphthalenylmethyl)-9H-pyrido[3,4b]indole]	> 100 nM	9 nM	particularly 5-HT1c selective
